Several values for one entry are separate records, joined by “and”; a condition that tells them apart may be missing. Identical values can stand only once. Like-named read-outs stand apart in the source and are kept apart here.
Tests used:
[1] = tested on: Pseudoperonospora cubensis; settings: alone
Method: Test plants (cucumber, variety: Sagami hanpaku) were seeded and grown until the one true leaf stage. D-tagatose alone was diluted to 5%, 1%, 0.5% and 0.1%, and the combination of D-tagatose and other saccharide were diluted to be 0.5% and 0.5% solution respectively with distilled water, and then 10 ml of the dilution was sprayed on the test plant. Three days after spraying of the solution, a sporangium suspension of Pseudoperonospora cubensis containing 1×10^3/ml were inoculated by spraying on test plants and then put them for 16 hours in an inoculation chamber (20° C. to 23° C.) to promote disease. Seven days after inoculation the disease severity of the test plants was observed and the effectiveness of test sample was judged. Tests were carried out using two plants for each test set and the disease severity of the test plants was judged in accordance with the following criteria. The preventive value was calculated from the degree of disease severity as in example 1.
Synergistic effect was determined by the Colby's equation below.
X is the observed effect, in percentage, of the first active ingredient and, and Y is the observed effect, in percentage, of the second active ingredient. E is the effect, in percentage, of the mixture expected from additive contribution of the individual components.

[2] = tested on: Pseudoperonospora cubensis; test: cucumber downy mildew, pot test: curative effect
Method: Test plants (cucumber, variety: Sagami hanpaku) were seeded and grown until the one true leaf stage. And then a sporangium suspension of Pseudoperonospora cubensis containing 1×10^3/ml were sprayed on the back side of the leaves of test plants for inoculation and then the plants were put for 16 hours in an inoculation chamber (20° C. to 23° C.) to promote disease. For a curative test, the inoculated plants as described above were used.
D-Tagatose was diluted to 5%, 1% and 0.5% with distilled water and then 10 ml of the dilution was sprayed on the test plant. Seven days after the spraying of D-tagatose the disease severity of the test plants was observed and the effectiveness of test sample was judged. Tests were carried out using two plants for each test set and the disease severity of the test plants was judged. The control value was calculated from the degree of disease severity as in Example 1.

[3] = tested on: Pseudoperonospora cubensis; test: cucumber downy mildew, pot test: preventive effect; settings: for Preventive value (3 DAS): inoculated 3 days after spraying; for Preventive value (5 DAS): inoculated 5 days after spraying
Method: Test plants (cucumber, variety: Sagami hanpaku) were seeded and grown until the one true leaf stage. D-Tagatose was diluted to 5%, 1% and 0.5% with distilled water and then 10 ml of the dilution was sprayed on the test plant. Three or five days after spraying, a sporangium suspension of Pseudoperonospora cubensis containing 1×10^3/ml were inoculated by spraying on test plants and then the plants were put for 16 hours in an incubation chamber (20° C. to 23° C.) to promote disease. Seven days after inoculation the disease severity of the test plants was observed and the effectiveness of test sample was judged. Tests were carried out using two plants for each test set and the disease severity of the test plants was judged in accordance with the following criteria. The preventive value was calculated from the degree of the disease severity.
(§1) 0 (No lesion) 1 (Lesion area was not more than 40%) 2 ((Lesion area was 40%-80%) 3 (Lesion area was not less than 80%)
Preventive value=100{1−(n/N)} N=disease severity of untreated leaf, n=disease severity of the tested leaf

Phytophthora infestans [4] = assay type: in vivo; settings: inoculated 3 days after spraying
[5] = tested on: Pseudoperonospora cubensis; settings: 5 ml soil drench, inoculated 5 days after drenching
Method: Test plants (cucumber, variety: Sagami hanpaku) were seeded and grown until the one true leaf stage. D-Tagatose was diluted to 5% and 1% with distilled water and then 5 ml of the dilution was drenched into the soil of the pot. Five days after drenching, a sporangium suspension of Pseudoperonospora cubensis containing 1×10^3/ml were noculated by spraying on the test plants and then put them for 16 hours in an inoculation chamber (20° C. to 23° C.) to promote disease. Seven days after inoculation the disease severity of the test plants was observed and the effectiveness of test sample was judged. Tests were carried out using two plants for each test set and the disease severity of the test plants was judged. The preventive value was calculated from the degree of disease severity as in Example 1.

Sphaerotheca fuligine = test: cucumber powdery mildew, pot test: preventive effect; settings: inoculated 3 days after spraying
Method: Test plants (cucumber, variety: Sagami-hanpaku) were seeded and grown until the one true leaf stage. D-tagatose was diluted to 5% and 1% with distilled water and then 10 ml of the dilution was sprayed on the test plant. Three days after spraying, a condia suspension of Sphaerotheca fuligine was inoculated by spraying on test plants. Seven days after inoculation the disease severity of the test plants was observed and the effectiveness of test sample was judged. Tests were carried out using two plants for each test set and the disease severity of the test plants was judged in accordance with the following criteria.

Pythium glaminicola = settings: 10 ml soil drench, from percentage of onset area after 2 weeks
Method: Four germinated rice seeds (variety: Koshihikari) were sowed in a pot (5×5 cm), which contains infected soil with Pythium glaminicola (mycelium 100 g/1 L soil). The pot was drenched with 10 ml of D-tagatose dilution and the seeds were covered with soil. After 2 weeks, the disease severity of the test plants per rice seedling in 25 cm^2 was observed and the effectiveness of test sample was judged. Tests were carried out in duplicate and the preventive value was calculated from percentage of onset area.

Pythium aphanidermatum [6] = settings: 10 ml soil drench, from germination rate after 2 weeks
Method: Five seeds of test plants (cucumber, variety: Sagami hanpaku) were sowed in a pot (5×5 cm), which contains infested soil with Pythium aphanidermatum (mycelium 100 g/1 L soil) and the seeds were covered with the soil. […] After 2 weeks, the disease severity of the test plants was observed and the effectiveness of test sample was judged. Tests were carried out in triplicate using 5 plants for each test set and the preventive value was calculated from the germination rate.

Peronospora parasitica = test: cabbage downy mildew, pot test: preventive effect; settings: inoculated 3 days after spraying
Method: Test plants (cabbage, variety: Shikidori) were seeded and grown until 4 leaves stage. […] Three days after spraying, a suspension containing condia of cucumber downy mildew (Peronospora parasitica) was inoculated by spraying on test plants. Seven days after inoculation the disease severity of the test plants was observed and the effectiveness of test sample was judged. Tests were carried out using two plants for each test set and the disease severity of test plants was judged in accordance with the following criteria. The preventive value was calculated from the degree of disease severity as in Example 1.

[7] = tested on: Pseudoperonospora cubensis; settings: Pseudoperonospora cubensis, in Cucumis sativus, 168 h, read-out: Preventive value
Method: Test plants (cucumber, variety: Sagami hanpaku) were seeded and grown until the one true leaf stage. D-Tagatose was diluted to 5000 ppm and the fungicides were diluted to the concentrations listed in table 14, with distilled water. And then 10 ml of the dilution was sprayed on the test plant. Three days after spraying of the solution, a sporangium suspension of Pseudoperonospora cubensis containing 1×10^3/ml were inoculated by spraying on test plants and then put for 16 hours in an inoculation chamber (20° C. to 23° C.) to promote disease. Seven days after inoculation the disease severity of the test plants was observed and the effectiveness of the test sample was judged. Tests were carried out using two plants for each test set and the disease severity of the test plants was judged in accordance with the following criteria. The preventive value was calculated from the degree of disease severity.
as §1
Preventive value=100{1−(n/N)} N=disease severity of untreated leaf, n=disease severity of the test leaf Synergistic effect was determined by Colby's equation.

Botrytis cinerea = settings: Botrytis cinerea, in Solanum lycopersicum, 168 h, read-out: Preventive value
Method: Test plants (tomato, variety: Ogata-fukujyu) were seeded and grown until the three leaf stage. D-Tagatose and fungicide were diluted to 10000 ppm and the concentrations liste in table 23, respectively, with distilled water and 10 ml of the dilution was sprayed on the plants. Three days after spraying the solution, condia suspension of Botrytis cinerea were inoculated by spraying on test plants and then put for 16 hours in an inoculation chamber (20° C. to 23° C.) to promote disease. Seven days after inoculation, the disease severity of the test plants was observed and the effectiveness of test sample was judged.

Puccinia recondita [8] = settings: Puccinia recondita, in Triticum aestivum, 168 h, read-out: Preventive value
Method: Test plants (variety: Nourin 61 gou) were sowed and grown until two leaves stage.
D-Tagatose and fungicide were diluted to 10000 ppm and the concentration listed in table 19, respectively, with distilled water, and 10 ml of the dilution was sprayed thoroughly on the plants. Three days after the spraying of the dilution, the plants were inoculated with Puccinia recondita containing 1×10^3/ml and then put for 16 hours in an inoculation chamber (20° C. to 23° C.) to promote disease. Seven days after inoculation the disease severity of the test plants was observed and the effectiveness of test sample was judged.

Sphaerotheca fuliginea = settings: Podosphaera fuliginea, in Cucumis sativus, 168 h, read-out: Preventive value
Method: Test plants (cucumber, variety: Sagami hanpaku) were seeded and grown until the one true leaf stage. D-Tagatose and fungicide were diluted to 5000 ppm and the concentrations listed in table 20, respectively, with distilled water and 10 ml of the dilution was sprayed thoroughly on the plants. Three days after spraying, a condia suspension containing of Sphaerotheca fuliginea were inoculated by spraying on test plants.
Seven days after inoculation the disease severity of the test plants was observed and the effectiveness of test sample was judged.

Plasmopara viticola = settings: Plasmopara viticola, 168 h, read-out: Preventive value
Method: Test plants (variety: Neo Muscat) were seeded and grown until three leaves. D-Tagatose was diluted to 5000 ppm and the fungicides were diluted to the concentrations listed in table 16, with distilled water, and 10 ml of the dilution was sprayed on the plants. Three days after the spraying of the dilution, the plants were infected by spraying a sporangium suspension of Plasmopara viticola containing 1×10^3/ml and then put for 16 hours in an inoculation chamber (20° C. to 23° C.) to promote disease. The disease severity of the test plants was observed 7 days after inoculation, and the effectiveness of test sample was judged.

Phytophthora infestans [9] = test: whole plant or invertebrate; assay type: in vivo; settings: Phytophthora infestans, in Solanum lycopersicum, 168 h, read-out: Preventive value
[10] = tested on: Erysiphe graminis f.sp. hordei; settings: Blumeria graminis, in Hordeum vulgare, 168 h, read-out: Preventive value
Method: Test plants (barley, variety: Akashinriki) were seeded and grown until the one leaf stage. D-tagatose and fungicide were diluted to 5000 ppm and the concentrations listed in table 21, respectively, with distilled water and 10 ml of the dilution was sprayed thoroughly on the plants. Three days after spraying, a condia suspension of Erysiphe graminis f.sp. hordei was inoculated by spraying on test plants. 7 days after inoculation the disease severity of the test plants was observed and the effectiveness of test sample was judged.

[11] = tested on: Pseudoperonospora cubensis; settings: Pseudoperonospora cubensis, in Cucumis sativus, 168 h, read-out: Preventive value; remark: listed apart in the source
Method: Test plants (cucumber, variety: Sagami hanpaku) were seeded and grown until the one true leaf stage. And then, a sporangium suspension of Pseudoperonospora cubensis containing 1×10^3/ml were spraying for inoculation on the back side of the leaves of test plants and then put for 16 hours in an inoculation chamber (20° C. to 23° C.) to promote disease. For a curative test, the inoculated plants as described above were used.
D-Tagatose was diluted to 5000 ppm and the fungicides were diluted to the concentrations listed in table 15, with distilled water, and 10 ml of the dilution was sprayed. Seven days after inoculation the disease severity of the test plants was observed and the effectiveness of test sample was judged.

Pythium aphanidermatum [12] = test: cucumber damping-off, pot test: soil drench of D-tagatose combined with fungicides; settings: Pythium aphanidermatum, in Cucumis sativus, soil, 336 h, read-out: Preventive value
Method: Five seeds of test plants (cucumber, variety: Sagami hanpaku) were sowed in a pot (5×5 cm), which contains infested soil with Pythium aphanidermatum (mycelium 100 g/1 L soil) and was covered with soil. D-Tagatose was diluted to 5000 ppm and the fungicides were diluted to the concentrations listed in table 18, with distilled water. The pot was drenched with 10 ml of the dilution. After 2 weeks, the disease severity of the test plants was observed and the effectiveness of test sample was judged. Tests were carried out in triplicate using 5 plants for each test set and the preventive value was calculated from the germination rate.

Puccinia recondita [13] = test: wheat brown rust, field trial; settings: 200 ppm
Method: Test plants (variety: Nourin 61 gou) were sowed and grown until heading stage. D-Tagatose was diluted to 5% with distilled water and sprayed thoroughly on the plants two times every 8 days. Three days after the first spraying of the dilution, wheat leaves inoculated with wheat fusarium blight (Puccinia recondita) were kept in the test plants. The disease severity of the test plants was observed 21 days after last spraying and the effectiveness of test sample was judged. Tests were carried out in duplicate. One plot of each test was 5 m^2. The disease severity of the test plants was judged in accordance with the following criteria. The preventive value was calculated from the degree of disease severity.

Pyricularia oryze = test: whole plant or invertebrate; assay type: in vivo; settings: Pyricularia, in Oryza sativa, 168 h, read-out: Preventive value

SMILES: CSC(=O)c1cccc2nnsc12 [Acibenzolar-S-Methyl, acibenzolar-S-methyl]
- Preventive value ([1]; 50 ppm): 95.0
- Preventive value (control value) ([2]; 50 ppm sprayed after inoculation (curative)): 25.0
- Preventive value (3 DAS) ([3]; 50 ppm spray): 91.7
- Preventive value (5 DAS) ([3]; 50 ppm spray): 99.2

SMILES: O=C(CO)[C@@H](O)[C@H](O)[C@H](O)CO [D-Fuctose, D-fructose]
- Preventive value ([1]; 5000 ppm): 0.0

SMILES: O=C[C@H](O)[C@@H](O)[C@H](O)[C@H](O)CO [D-Glucose]
- Preventive value (Phytophthora infestans [4]; 50000 ppm spray): 0.0
- Preventive value (Phytophthora infestans [4]; 100000 ppm spray): 0.0
- Preventive value ([5]; 10000 ppm): 0.0
- Preventive value ([5]; 50000 ppm): 0.0
- Preventive value (control value) ([2]; 5000 ppm sprayed after inoculation (curative)): 0.0
- Preventive value (control value) ([2]; 10000 ppm sprayed after inoculation (curative)): 0.0
- Preventive value (control value) ([2]; 50000 ppm sprayed after inoculation (curative)): 0.0
- Preventive value (Sphaerotheca fuligine; 10000 ppm spray): 0.0
- Preventive value (Sphaerotheca fuligine; 50000 ppm spray): 0.0
- Preventive value (Pythium glaminicola; 10000 ppm): 3.0
- Preventive value (Pythium glaminicola; 50000 ppm): 4.5
- Preventive value (Pythium aphanidermatum [6]; 10000 ppm): 0.0
- Preventive value (Pythium aphanidermatum [6]; 50000 ppm): 0.0
- Preventive value (Peronospora parasitica; 10000 ppm spray): 0.0
- Preventive value (Peronospora parasitica; 50000 ppm spray): 0.0
- Preventive value (3 DAS) ([3]; 5000 ppm spray): 0.0
- Preventive value (5 DAS) ([3]; 5000 ppm spray): 0.0
- Preventive value (3 DAS) ([3]; 10000 ppm spray): 0.0
- Preventive value (5 DAS) ([3]; 10000 ppm spray): 0.0
- Preventive value (3 DAS) ([3]; 50000 ppm spray): 0.0
- Preventive value (5 DAS) ([3]; 50000 ppm spray): 0.0

SMILES: O=C[C@@H](O)[C@@H](O)[C@H](O)[C@H](O)CO [D-Mannose, D-mannose]
- Preventive value ([1]; 5000 ppm): 0.0

SMILES: O=C(CO)[C@H](O)[C@H](O)[C@H](O)CO [D-Psicose, D-psicose]
- Preventive value ([1]; 5000 ppm): 0.0

SMILES: O=C(CO)[C@H](O)[C@@H](O)[C@H](O)CO [D-Sorbose, D-sorbose]
- Preventive value ([1]; 5000 ppm): 0.0

SMILES: COCC(=O)N(c1c(C)cccc1C)C(C)C(=O)OC (centres unmarked) [Metalaxyl, metalaxyl]
- pest or weed control at 2 ppm [7]: 67%
- Preventive value ([1]; 300 ppm): 100.0
- Preventive value (Phytophthora infestans [4]; 300 ppm spray): 93.3
- pest or weed control at 250 ppm (Botrytis cinerea): 0%
- Preventive value ([5]; 300 ppm): 100.0
- pest or weed control at 250 ppm (Puccinia recondita [8]): 0%
- Preventive value (control value) ([2]; 300 ppm sprayed after inoculation (curative)): 100.0
- pest or weed control at 250 ppm (Sphaerotheca fuliginea): 0%
- pest or weed control at 2 ppm (Plasmopara viticola): 50%
- Preventive value (Pythium aphanidermatum [6]; 300 ppm): 95.0
- Preventive value (Peronospora parasitica; 600 ppm spray): 98.4
- Preventive value (3 DAS) ([3]; 300 ppm spray): 100.0
- Preventive value (5 DAS) ([3]; 300 ppm spray): 100.0
- pest or weed control at 2 ppm (Phytophthora infestans [9]): 67%
- pest or weed control at 250 ppm [10]: 0%
- pest or weed control at 2 ppm [11]: 33%
- pest or weed control at 5 ppm (Pythium aphanidermatum [12]): 83%

SMILES: C=CCOC1=NS(=O)(=O)c2ccccc21 [Probenazole, probenazole]
- Preventive value ([1]; 100 ppm): 66.7
- Preventive value (control value) ([2]; 100 ppm sprayed after inoculation (curative)): 18.3
- Preventive value (3 DAS) ([3]; 100 ppm spray): 33.3
- Preventive value (5 DAS) ([3]; 100 ppm spray): 95.0

SMILES: CC(C)(C)C(O)(CCc1ccc(Cl)cc1)Cn1cncn1 (centres unmarked) [Tebuconazole, tebuconazole]
- D.D.S (Degree of disease severity), Av (Puccinia recondita [13]; average of plots): 0.2
- Leaves number(n) of disease severity 0 (Puccinia recondita [13]; per plot (1, 2), 100 leaves): 98 and 100
- Leaves number(n) of disease severity 2 (Puccinia recondita [13]; per plot (1, 2), 100 leaves): 0
- Leaves number(n) of disease severity 3 (Puccinia recondita [13]; per plot (1, 2), 100 leaves): 0
- Leaves number(n) of disease severity 4 (Puccinia recondita [13]; per plot (1, 2), 100 leaves): 0
- Leaves number(n) of disease severity 5 (Puccinia recondita [13]; per plot (1, 2), 100 leaves): 0
- Leaves number(n) of disease severity 6 (Puccinia recondita [13]; per plot (1, 2), 100 leaves): 0
- P.V. (Preventive value), Av (Puccinia recondita [13]; sprayed two times every 8 days, rated 21 days after last spraying): 99.8
- pest or weed control at 10 ppm (Botrytis cinerea): 33%
- pest or weed control at 0.4 ppm (Puccinia recondita [8]): 50%
- pest or weed control at 0.4 ppm (Sphaerotheca fuliginea): 73%
- pest or weed control at 0.4 ppm [10]: 67%

SMILES: CC(C)CC(C)c1sccc1NC(=O)c1cn(C)nc1C(F)(F)F (centres unmarked) [penthiopyrad]
- pest or weed control at 50 ppm [7]: 0%
- pest or weed control at 10 ppm (Botrytis cinerea): 67%
- pest or weed control at 0.4 ppm (Puccinia recondita [8]): 67%
- pest or weed control at 0.4 ppm (Sphaerotheca fuliginea): 50%
- pest or weed control at 50 ppm (Plasmopara viticola): 0%
- pest or weed control at 50 ppm (Pyricularia oryze): 40%
- pest or weed control at 50 ppm (Phytophthora infestans [9]): 0%
- pest or weed control at 0.4 ppm [10]: 67%
- pest or weed control at 50 ppm [11]: 0%
- pest or weed control at 250 ppm (Pythium aphanidermatum [12]): 0%

SMILES: C[Si](C)(C)CC(O)(Cn1cncn1)c1ccc(F)cc1 (centres unmarked) [simeconazole]
- pest or weed control at 250 ppm [7]: 0%
- pest or weed control at 50 ppm (Botrytis cinerea): 33%
- pest or weed control at 10 ppm (Puccinia recondita [8]): 67%
- pest or weed control at 0.4 ppm (Sphaerotheca fuliginea): 83%
- pest or weed control at 250 ppm (Plasmopara viticola): 0%
- pest or weed control at 250 ppm (Pyricularia oryze): 73%
- pest or weed control at 250 ppm (Phytophthora infestans [9]): 0%
- pest or weed control at 0.4 ppm [10]: 50%
- pest or weed control at 250 ppm [11]: 0%
- pest or weed control at 250 ppm (Pythium aphanidermatum [12]): 0%

SMILES: COC(=O)NC(=S)Nc1ccccc1NC(=S)NC(=O)OC [thiophanate-methyl]
- pest or weed control at 250 ppm [7]: 0%
- pest or weed control at 50 ppm (Botrytis cinerea): 83%
- pest or weed control at 10 ppm (Puccinia recondita [8]): 40%
- pest or weed control at 10 ppm (Sphaerotheca fuliginea): 83%
- pest or weed control at 250 ppm (Plasmopara viticola): 0%
- pest or weed control at 250 ppm (Pyricularia oryze): 83%
- pest or weed control at 250 ppm (Phytophthora infestans [9]): 0%
- pest or weed control at 10 ppm [10]: 83%
- pest or weed control at 250 ppm [11]: 0%
- pest or weed control at 250 ppm (Pythium aphanidermatum [12]): 0%

Reference: US20110281807A1, “PLANT DISEASE CONTROL AGENT COMPRISING D-TAGATOSE AS ACTIVE INGREDIENT, AND PLANT DISEASE CONTROL METHOD” (NATIONAL UNIVERSITY CORPORATION KAGAWA UNIVERSITY, priority 2008, published 2011)
